# Calls of active or inactive are those of the source. How the calls were made is not given here.
# System: CCRIS mutagenicity, Ames/micronucleus/aberration tests
# Assay: CCRIS mutagenicity studies
# [1] = Test System: AMES SALMONELLA TYPHIMURIUM, Strain/Indicator: TA100, Metabolic Activation: NONE, Method: STANDARD PLATE
# [2] = Test System: AMES SALMONELLA TYPHIMURIUM, Strain/Indicator: TA98, Metabolic Activation: NONE, Method: STANDARD PLATE
# [3] = Test System: AMES SALMONELLA TYPHIMURIUM, Strain/Indicator: TA98, Metabolic Activation: RAT, LIVER, S-9, AROCLOR 1254, Method: STANDARD PLATE
# [4] = Test System: AMES SALMONELLA TYPHIMURIUM, Strain/Indicator: TA100, Metabolic Activation: RAT, LIVER, S-9, AROCLOR 1254, Method: STANDARD PLATE
smiles,measurement,setting,value
c1ccc2c(c1)-c1c(ccc3ccccc13)C1OC21 (stereo unspecified),mutagenic call,"Test System: AMES SALMONELLA TYPHIMURIUM, Strain/Indicator: TA98, Metabolic Activation: NONE, Method: PREINCUBATION (KCL-CONTAINING MEDIUM)",active; positive
same,mutagenic call,"Test System: AMES SALMONELLA TYPHIMURIUM, Strain/Indicator: TA98, Metabolic Activation: NONE, Method: PREINCUBATION (KCL-FREE MEDIUM)",active; positive
same,mutagenic call,"Test System: AMES SALMONELLA TYPHIMURIUM, Strain/Indicator: TA100, Metabolic Activation: NONE, Method: PREINCUBATION (KCL-CONTAINING MEDIUM)",active; positive
same,mutagenic call,"Test System: AMES SALMONELLA TYPHIMURIUM, Strain/Indicator: TA100, Metabolic Activation: NONE, Method: PREINCUBATION (KCL-FREE MEDIUM)",active; positive
COc1ccc(Cc2cnc(N)nc2N)cc1OC,mutagenic call,"Test System: AMES SALMONELLA TYPHIMURIUM, Strain/Indicator: TA98, Metabolic Activation: HAMSTER, LIVER, S-9, PHENOBARBITAL AND BETA-NAPHTHOFLAVONE, Method: PREINCUBATION",inactive; negative
same,mutagenic call,"Test System: AMES SALMONELLA TYPHIMURIUM, Strain/Indicator: TA98, Metabolic Activation: NONE, Method: PREINCUBATION",inactive; negative
same,mutagenic call,"Test System: AMES SALMONELLA TYPHIMURIUM, Strain/Indicator: TA98, Metabolic Activation: RAT, LIVER, S-9, PHENOBARBITAL AND BETA-NAPHTHOFLAVONE, Method: PREINCUBATION",inactive; negative
same,mutagenic call,"Test System: AMES SALMONELLA TYPHIMURIUM, Strain/Indicator: TA100, Metabolic Activation: HAMSTER, LIVER, S-9, PHENOBARBITAL AND BETA-NAPHTHOFLAVONE, Method: PREINCUBATION",active; positive
same,mutagenic call,"Test System: AMES SALMONELLA TYPHIMURIUM, Strain/Indicator: TA100, Metabolic Activation: NONE, Method: PREINCUBATION",inactive; negative
same,mutagenic call,"Test System: AMES SALMONELLA TYPHIMURIUM, Strain/Indicator: TA100, Metabolic Activation: RAT, LIVER, S-9, PHENOBARBITAL AND BETA-NAPHTHOFLAVONE, Method: PREINCUBATION",inactive; negative
same,mutagenic call,"Test System: E.COLI, Strain/Indicator: WP2UVRA/PKM101, Metabolic Activation: NONE, Method: PREINCUBATION",inactive; negative
same,mutagenic call,"Test System: E.COLI, Strain/Indicator: WP2UVRA/PKM101, Metabolic Activation: RAT LIVER S-9, PHENOBARBITAL AND 5,6-BENZOFLAVONE, Method: PREINCUBATION",inactive; negative
O=[N+]([O-])C(Cl)(Br)Br,mutagenic call,"Test System: Ames Salmonella typhimurium, Strain/Indicator: RSJ100, Metabolic Activation: None, Method: Standard Plate",inactive; negative
same,mutagenic call,"Test System: Ames Salmonella typhimurium, Strain/Indicator: RSJ100, Metabolic Activation: Rat, Liver, S-9, Aroclor, Method: Standard Plate",inactive; negative
same,mutagenic call,"Test System: Ames Salmonella typhimurium, Strain/Indicator: TA98, Metabolic Activation: None, Method: Standard Plate",inactive; negative
same,mutagenic call,"Test System: Ames Salmonella typhimurium, Strain/Indicator: TA98, Metabolic Activation: Rat, Liver, S-9, Aroclor, Method: Standard Plate",inactive; negative
same,mutagenic call,"Test System: Ames Salmonella typhimurium, Strain/Indicator: TA100, Metabolic Activation: None, Method: Standard Plate",inactive; negative
same,mutagenic call,"Test System: Ames Salmonella typhimurium, Strain/Indicator: TA100, Metabolic Activation: Rat, Liver, S-9, Aroclor, Method: Standard Plate",inactive; negative
same,mutagenic call,"Test System: Ames Salmonella typhimurium, Strain/Indicator: TA104, Metabolic Activation: None, Method: Standard Plate",inactive; negative
same,mutagenic call,"Test System: Ames Salmonella typhimurium, Strain/Indicator: TA104, Metabolic Activation: Rat, Liver, S-9, Aroclor, Method: Standard Plate",inactive; negative
same,mutagenic call,"Test System: Ames Salmonella typhimurium, Strain/Indicator: TPT100, Metabolic Activation: None, Method: Standard Plate",inactive; negative
N#C/C(=C/C=C/c1ccccc1)c1ccc(F)cc1,mutagenic call,"Test System: AMES SALMONELLA TYPHIMURIUM, Strain/Indicator: TA97A, Metabolic Activation: NONE, Method: STANDARD PLATE",active; positive
same,mutagenic call,[1],inactive; negative
C(CC1CO1)C1CO1 (stereo unspecified),mutagenic call,[1],active; positive
same,mutagenic call,"Test System: AMES SALMONELLA TYPHIMURIUM, Strain/Indicator: TA1535, Metabolic Activation: NONE, Method: STANDARD PLATE",active; positive
CC(C)=C[C@@H]1[C@@H](C(=O)OCc2coc(Cc3ccccc3)c2)C1(C)C,mutagenic call,[2],inactive; negative
same,mutagenic call,[3],inactive; negative
same,mutagenic call,[1],inactive; negative
same,mutagenic call,[4],inactive; negative
same,mutagenic call,"Test System: CHINESE HAMSTER V-79, Strain/Indicator: V-79/6-THIOGUANINE, Metabolic Activation: NONE, Method: STANDARD PLATE",inactive; negative
same,mutagenic call,"Test System: CHINESE HAMSTER V-79, Strain/Indicator: V-79/6-THIOGUANINE, Metabolic Activation: RAT HEPATOCYTES, Method: STANDARD PLATE",inactive; negative
same,mutagenic call,"Test System: CHINESE HAMSTER V-79, Strain/Indicator: V-79/OUABAIN, Metabolic Activation: NONE, Method: STANDARD PLATE",inactive; negative
same,mutagenic call,"Test System: CHINESE HAMSTER V-79, Strain/Indicator: V-79/OUABAIN, Metabolic Activation: RAT HEPATOCYTES, Method: STANDARD PLATE",inactive; negative
O=C1C=CC(=O)C(c2ccc(Cl)cc2)=C1,mutagenic call,"End Point: In vitro micronucleus, Test System: Chinese hamster lung V79 cells, Metabolic Activation: None",active; positive
O=C(N=c1sn(C(=O)c2ccc(Cl)c(Cl)c2)c2ccc([N+](=O)[O-])cc12)c1ccc(Cl)c(Cl)c1,mutagenic call,"Test System: AMES SALMONELLA TYPHIMURIUM, Strain/Indicator: TA100, Metabolic Activation: S-9, Method: STANDARD PLATE",active; positive
O=C(CBr)c1oc([N+](=O)[O-])c(Cl)c1Cl,mutagenic call,[2],active; positive
same,mutagenic call,"Test System: AMES SALMONELLA TYPHIMURIUM, Strain/Indicator: TA100 (NR), Metabolic Activation: NONE, Method: STANDARD PLATE",active; positive
same,mutagenic call,[1],active; positive
same,mutagenic call,"Test System: AMES SALMONELLA TYPHIMURIUM, Strain/Indicator: TA100, Metabolic Activation: NONE, Method: STANDARD PLATE (ANAEROBIC INCUBATION)",active; positive
Cc1cc(=O)c2c(O)c3c(O)cc(O)c4c5c(O)cc(O)c6c(O)c7c(=O)cc(C)c8c1c2c(c34)c(c65)c78,mutagenic call,[2],inactive; negative
same,mutagenic call,[3],inactive; negative
same,mutagenic call,[1],inactive; negative
same,mutagenic call,[4],inactive; negative
Nc1ccc2cc(S(=O)(=O)O)cc(O)c2c1N=Nc1ccc([N+](=O)[O-])cc1S(=O)(=O)O,mutagenic call,[2],inactive; negative
same,mutagenic call,"Test System: AMES SALMONELLA TYPHIMURIUM, Strain/Indicator: TA98, Metabolic Activation: RAT, LIVER, S-9, PHENOBARBITAL, Method: STANDARD PLATE",inactive; negative
same,mutagenic call,[1],inactive; negative
same,mutagenic call,"Test System: AMES SALMONELLA TYPHIMURIUM, Strain/Indicator: TA100, Metabolic Activation: RAT, LIVER, S-9, PHENOBARBITAL, Method: STANDARD PLATE",inactive; negative
O=C(O)[C@@H]1Cc2c([nH]c3ccccc23)[C@H]([C@H]2CCNC2=S)N1,mutagenic call,"Test System: AMES SALMONELLA TYPHIMURIUM, Strain/Indicator: TA98, Metabolic Activation: NONE",inactive; negative
same,mutagenic call,"Test System: AMES SALMONELLA TYPHIMURIUM, Strain/Indicator: TA98, Metabolic Activation: S-9",inactive; negative
same,mutagenic call,"Test System: AMES SALMONELLA TYPHIMURIUM, Strain/Indicator: TA100, Metabolic Activation: NONE",inactive; negative
same,mutagenic call,"Test System: AMES SALMONELLA TYPHIMURIUM, Strain/Indicator: TA100, Metabolic Activation: S-9",inactive; negative

# From PubChem BioAssay AID1259407 (Chemical Carcinogenesis Research Information System (CCRIS), 2018)
